Our source for the TGI and GI50 values is PubChem BioAssay (NCI).

Among the test systems are BT-549 breast; COLO 205 colon; HL-60(TB) leukemia; IGROV1 ovarian; M19-MEL melanoma; NCI-H460 lung; NCI/ADR-RES ovarian; SF-268 CNS; SF-295 CNS; SNB-78 CNS; TK-10 renal.
Common to all, as to experiment: inhibition of tumour cell growth, NCI panel, 48 h

Each structure is given as a SMILES string. “And” between values parts separate entries of the source, which are not always exact repeats. Equal entries are not always repeated.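 Cultured in 96-well plates, cells were exposed to test compound for 48 hours across five concentrations. Here, GI50 denotes the concentration required for 50% inhibition of growth. The concentration for full growth arrest is given as TGI.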 Bounds are passed on as bounds.

For the molecule `Cc1c2cc[n+](CCN3CCCCC3)cc2c(C)c2c1[nH]c1ccc(O)cc12`, the TGI in the experiment with BT-549 breast was 28.7 µM; with COLO 205 colon, 27.5 µM and > 24.2 µM; in the experiment on HL-60(TB) leukemia, 26.5 µM and > 40.4 µM; in the experiment on IGROV1 ovarian, 38.1 µM and 30.4 µM; in the experiment on M19-MEL melanoma, 4.93 µM; in the experiment with NCI-H460 lung, 10 µM and > 32.8 µM. Further, the TGI was 72.2 µM and > 100 µM in the experiment with NCI/ADR-RES ovarian; 29.6 µM and 25.7 µM in the experiment with SF-268 CNS; 18.4 µM and > 100 µM in the experiment with SF-295 CNS; 64.1 µM in the experiment on SNB-78 CNS; more than 57.6 µM in the experiment on TK-10 renal. The GI50 with COLO 205 colon was 2.57 µM; with HL-60(TB) leukemia it was 3.67 µM; in the experiment with IGROV1 ovarian, 4.43 µM; with NCI-H460 lung it was 0.523 µM; in the experiment with NCI/ADR-RES ovarian it was 27.4 µM; with SF-268 CNS, 2.29 µM. In addition, in the experiment on SF-295 CNS, the GI50 was 5.43 µM.
Consider `CC12NN=NC1C(=O)NC2=O` (stereo unspecified), for which the TGI in the experiment with COLO 205 colon, in the experiment with HL-60(TB) leukemia, in the experiment on IGROV1 ovarian, in the experiment on M19-MEL melanoma, in the experiment with NCI-H460 lung and with SF-268 CNS was more than 100 µM throughout. Further, the TGI in the experiment on SF-295 CNS, with SNB-78 CNS and with TK-10 renal was more than 100 µM each time.
With `CC1=C(N2CC2)C(=O)c2nc3n(c2C1=O)CCC3OC(=O)CCl` (stereo unspecified), the TGI in the experiment on BT-549 breast worked out at 0.0444 µM; with COLO 205 colon, 0.444 µM; in the experiment with HL-60(TB) leukemia, 3.18 µM; with IGROV1 ovarian, 0.928 µM; with M19-MEL melanoma, 0.266 µM; with NCI-H460 lung it was 0.123 µM. The TGI in the experiment on NCI/ADR-RES ovarian stood at 0.0862 µM; in the experiment with SF-268 CNS, 0.202 µM; in the experiment on SF-295 CNS, 0.204 µM; in the experiment on SNB-78 CNS it was 0.6 µM; in the experiment on TK-10 renal it was 0.639 µM.
Take `CCOC1(COP(=O)(OCc2ccccc2)OCc2ccccc2)COC(COP(=O)(OCc2ccccc2)OCc2ccccc2)(OCC)CO1` (stereo unspecified): the TGI in the experiment on COLO 205 colon, with HL-60(TB) leukemia, with IGROV1 ovarian, in the experiment with M19-MEL melanoma, with NCI-H460 lung and in the experiment on SF-268 CNS was more than 100 µM in each case. The TGI with SF-295 CNS, in the experiment on SNB-78 CNS and in the experiment on TK-10 renal was more than 100 µM each time.
Take `C=C1CC2OC2(C(=O)O[C@H]2CCC3[C@@H]4CCC5=CC(=O)CC[C@]5(C)C4CC[C@@]32C)C1=O` (stereo partly specified): the TGI in the experiment on BT-549 breast was determined as 41.9 µM; in the experiment on COLO 205 colon it was 15.5 µM; in the experiment on HL-60(TB) leukemia, 3.93 µM; in the experiment on IGROV1 ovarian, 25.6 µM; in the experiment with M19-MEL melanoma it was 31.7 µM; with NCI-H460 lung, 28.9 µM. In addition, the TGI with SF-268 CNS came to 18.2 µM; in the experiment with SF-295 CNS, 42.8 µM; in the experiment with SNB-78 CNS, 19.5 µM; in the experiment with TK-10 renal, 15.1 µM.
On to `CN(CCO)c1nc2c(c(=O)[nH]1)CCC2`, for which the TGI in the experiment with COLO 205 colon, in the experiment on HL-60(TB) leukemia, in the experiment on IGROV1 ovarian, in the experiment on M19-MEL melanoma, in the experiment on NCI-H460 lung and in the experiment on SF-268 CNS was more than 100 µM in each case. In addition, the TGI in the experiment on SF-295 CNS, in the experiment with SNB-78 CNS and in the experiment on TK-10 renal was more than 100 µM throughout.
